Results published in patent US10508085B2, “Compounds and methods for IDO and TDO modulation, and indications therefor” (Plexxikon Inc., priority 2016, dated 2019).
Read-outs that look alike come from different tables or passages of the source.

How the values were obtained:
[1] = target: T1, Human Indoleamine 2,3-dioxygenase (IDO) (Homo sapiens, UniProt P14902); experiment: Human IDO enzymatic assay (kynurenine level); type: biochemical; details: 6 nM IDO, 10 μM L-Trp; geometric mean; read-out: IDO1 GMean: IC50 (μM) (Biochemical Assay)
T1 construct: His tag (N); made in house; host or cells: E. coli
T1 sequence (P14902 whole entry): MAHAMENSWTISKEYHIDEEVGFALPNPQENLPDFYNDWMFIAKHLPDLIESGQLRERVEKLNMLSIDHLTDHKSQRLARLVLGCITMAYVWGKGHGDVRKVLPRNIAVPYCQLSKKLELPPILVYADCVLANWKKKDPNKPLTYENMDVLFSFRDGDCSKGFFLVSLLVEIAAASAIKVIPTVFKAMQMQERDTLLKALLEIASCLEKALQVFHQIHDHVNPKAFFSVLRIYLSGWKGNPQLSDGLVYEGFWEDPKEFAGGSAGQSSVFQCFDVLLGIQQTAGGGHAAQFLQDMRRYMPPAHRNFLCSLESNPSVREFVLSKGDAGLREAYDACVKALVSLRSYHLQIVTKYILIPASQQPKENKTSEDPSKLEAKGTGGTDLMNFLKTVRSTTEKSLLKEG
How it was run: (§1)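 N-terminally His-tagged enzymes expressed in E. coli were run in 50 mM sodium phosphate pH 6.5 with 10 mM ascorbate, catalase and Tween 20. IDO: 6 nM enzyme, 10 μM L-Trp, 5 μM methylene blue, 20 min RT. TDO: 1 nM enzyme, 350 μM L-Trp, 0.4 μM methylene blue, 70 min RT.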

[2] = target: T2, Human Tryptophan 2,3-dioxygenase (TDO) (Homo sapiens, UniProt P48775); experiment: Human TDO enzymatic assay (kynurenine level); type: biochemical; details: 1 nM TDO, 350 μM L-Trp; geometric mean; read-out: TDO GMean: IC50 (μM) (Biochemical Assay)
T2 construct: His tag (N); made in house; host or cells: E. coli
T2 sequence (P48775 whole entry): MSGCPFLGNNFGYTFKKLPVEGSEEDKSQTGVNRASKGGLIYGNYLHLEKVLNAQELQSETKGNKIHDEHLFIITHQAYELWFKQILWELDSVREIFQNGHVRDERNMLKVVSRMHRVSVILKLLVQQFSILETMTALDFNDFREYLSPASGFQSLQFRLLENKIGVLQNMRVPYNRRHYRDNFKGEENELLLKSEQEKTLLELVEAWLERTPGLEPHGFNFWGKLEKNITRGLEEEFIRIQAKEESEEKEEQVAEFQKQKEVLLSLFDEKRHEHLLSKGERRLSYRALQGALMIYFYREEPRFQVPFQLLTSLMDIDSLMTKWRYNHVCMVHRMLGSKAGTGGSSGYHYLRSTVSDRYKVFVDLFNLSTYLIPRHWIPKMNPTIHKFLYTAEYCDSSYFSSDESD
How it was run: as §1

[3] = target: T3, human IDO (IDO1-expressing HEK293 cells) (Homo sapiens, UniProt P14902); experiment: Cell based kynurenine assay, IDO1-expressing HEK293 cell clones; details: IDO1-expressing HEK293 cells, geometric mean, read-out: HEK293 IDO1 Kynurenine GMean IC50 (μM) (Cellular Assay)
T3 construct: expressed in transfected cells
T3 sequence (P14902 whole entry): as the sequence (P14902 whole entry) above
Method: (§2) Determine Inhibitor Activity Against IDO or TDO in Cell Based Kynurenine Assay
(§3) IDO1-expressing or TDO-expressing HEK293 cell clones are generated upon stable transfection of plasmids expressing human IDO or human TDO under the control of CMV promoter. Cells are selected in DMEM media supplemented with 10% fetal bovine serum and 1 mg/ml G418 at 37° C. in a humidified incubator supplied with 5% CO2. The assays are performed as follows.
(§4) Cells were seeded in a 96 well plate in 50 μL of culture media at a density of 2.5×10^4 per well. Serial dilutions of compounds (in total volume of 50 μL culture media) are added into cells. 4 wells containing 0.2% DMSO treated cells serve as high controls and 4 wells containing media only with 0.2% DMSO serve as low controls. After 24 hours of incubation, the supernatant was transferred to a 384 well reaction plate and the kynurenine level determined. The percentage inhibition at individual concentrations relative to high and low controls is calculated. The data is analyzed by using nonlinear regression to generate IC50 values.

[4] = target: T4, human TDO (TDO-expressing HEK293 cells) (Homo sapiens, UniProt P48775); experiment: Cell based kynurenine assay, TDO-expressing HEK293 cell clones; details: TDO-expressing HEK293 cells, geometric mean, read-out: HEK293 TDO Kynurenine GMean IC50 (μM) (Cellular Assay)
T4 construct: expressed in transfected cells
T4 sequence (P48775 whole entry): as the sequence (P48775 whole entry) above
Method: as §2, §3, §4

Structure (SMILES)	IC50 [1]	IC50 [2]	IC50 ([3]; 24 hours)	IC50 ([4]; 24 hours)	IC50 ([3]; 24 hours incubation)	IC50 ([4]; 24 hours incubation)
CCNC(=O)N1CCC(C(C)(C)[C@H](O)c2cc(Cl)cc3cn[nH]c23)CC1 [Compound P-0550, (S)-4-(1-(5-chloro-1H-indazol-7-yl)-1-hydroxy-2-methylpropan-2-yl)-N-ethylpiperidine-1-carboxamide]	0.0001 to 10 µM	0.0001 to 10 µM	0.0001 to 10 µM	0.0001 to 10 µM		
CC(C)(C1CCN(C(=O)Nc2ccc(F)cc2F)CC1)C(O)c1cc(Cl)cc2cn[nH]c12 (stereo not drawn) [Compound P-0398, 4-(1-(5-chloro-1H-indazol-7-yl)-1-hydroxy-2-methylpropan-2-yl)-N-(2,4-difluorophenyl) piperidine-1-carboxamide]	0.0001 to 10 µM	0.0001 to 10 µM			0.0001 to 10 µM	0.0001 to 10 µM
CC(C)(C1CCN(C(N)=O)CC1)[C@@H](O)c1cc(Cl)cc2cn[nH]c12 [Compound P-0426, (R)-4-(1-(5-chloro-1H-indazol-7-yl)-1-hydroxy-2-methylpropan-2-yl)piperidine-1-carboxamide]	0.0001 to 10 µM	0.0001 to 10 µM	> 10 µM	0.0001 to 10 µM		
CC1(C(O)c2cc(Cl)cc3cn[nH]c23)CCOCC1 (stereo not drawn) [Compound P-0236, (5-chloro-1H-indazol-7-yl)(4-methyltetrahydro-2H-pyran-4-yl)methanol]	0.0001 to 10 µM	0.0001 to 10 µM			0.0001 to 10 µM	0.0001 to 10 µM
CC(C)(C1CCN(S(C)(=O)=O)CC1)C(O)c1c(F)ccc2cn[nH]c12 (stereo not drawn) [Compound P-0284, 1-(6-fluoro-1H-indazol-7-yl)-2-methyl-2-(1-(methylsulfonyl)piperidin-4-yl)propan-1-ol]	0.0001 to 10 µM	0.0001 to 10 µM			0.0001 to 10 µM	0.0001 to 10 µM
CC(C)(C1CCN(C(=O)CC2CCS(=O)(=O)CC2)CC1)[C@H](O)c1cc(Cl)cc2cn[nH]c12 [Compound P-0502, (S)-1-(4-(1-(5-chloro-1H-indazol-7-yl)-1-hydroxy-2-methylpropan-2-yl)piperidin-1-yl)-2-(1,1-dioxidotetrahydro-2H-thiopyran-4-yl)ethan-1-one]	0.0001 to 10 µM	0.0001 to 10 µM	0.0001 to 10 µM	0.0001 to 10 µM		
CC(C)(C1CCN(S(C)(=O)=O)CC1)C(O)c1cc(Cl)cc2[nH]ncc12 (stereo not drawn) [Compound P-0171, 1-(6-chloro-1H-indazol-4-yl)-2-methyl-2-(1-(methylsulfonyl)piperidin-4-yl)propan-1-ol]	0.0001 to 10 µM	0.0001 to 10 µM			> 10 µM	0.0001 to 10 µM
OC(CCc1ccccc1)c1cccc2cncn12 (stereo not drawn) [Compound P-0074, 1-(imidazo[1,5-a]pyridin-5-yl)-3-phenylpropan-1-ol]	0.0001 to 10 µM	10 to 100 µM			> 10 µM	> 10 µM
CNS(=O)(=O)N1CCC(C(F)(F)C(O)c2cc(Cl)cc3cn[nH]c23)CC1 (stereo not drawn) [Compound P-0330, 4-(2-(5-chloro-1H-indazol-7-yl)-1,1-difluoro-2-hydroxyethyl)-N-methylpiperidine-1-sulfonamide]	0.0001 to 10 µM	0.0001 to 10 µM			0.0001 to 10 µM	0.0001 to 10 µM
COCC(=O)N1CCC(C(C)(C)C(O)c2cc(Cl)cc3cn[nH]c23)CC1 (stereo not drawn) [Compound P-0414, 1-(4-(1-(5-chloro-1H-indazol-7-yl)-1-hydroxy-2-methylpropan-2-yl)piperidin-1-yl)-2-methoxyethan-1-one]	0.0001 to 10 µM	0.0001 to 10 µM	0.0001 to 10 µM	0.0001 to 10 µM		
[2H]C(O)(c1cc(Cl)cc2cn[nH]c12)C(C)(C)C1CCOCC1 (stereo not drawn) [Compound P-0244, 1-(5-chloro-1H-indazol-7-yl)-2-methyl-2-(tetrahydro-2H-pyran-4-yl)propan-1-d-1-ol]	0.0001 to 10 µM	0.0001 to 10 µM			0.0001 to 10 µM	0.0001 to 10 µM
CC(C)(C)OC(=O)N1CCC(C(C)(C)[C@@H](O)c2c(F)c(Cl)cc3cn[nH]c23)CC1 [Compound P-0384, tert-butyl (R)-4-(1-(5-chloro-6-fluoro-1H-indazol-7-yl)-1-hydroxy-2-methylpropan-2-yl)piperidine-1-carboxylate]	0.0001 to 10 µM	0.0001 to 10 µM			> 10 µM	> 10 µM
CC1(C)CC(C(O)c2cc(Cl)cc3cn[nH]c23)C1 (stereo not drawn) [Compound P-0196, (5-chloro-1H-indazol-7-yl)(3,3-dimethylcyclobutyl)methanol]	0.0001 to 10 µM	0.0001 to 10 µM			0.0001 to 10 µM	0.0001 to 10 µM
CC(C)(C(O)c1cc(Cl)cc2cn[nH]c12)[C@H]1C[C@H]2CC[C@@H](C1)N2S(N)(=O)=O (stereo partly drawn) [Compound P-0347, (1R,3r,5S)-3-(1-(5-chloro-1H-indazol-7-yl)-1-hydroxy-2-methylpropan-2-yl)-8-azabicyclo[3.2.1] octane-8-sulfonamide]	0.0001 to 10 µM	0.0001 to 10 µM			0.0001 to 10 µM	0.0001 to 10 µM
OC(c1c(F)c(Cl)c(F)c2cn[nH]c12)C1(C2CCCCC2)CC1 (stereo not drawn) [Compound P-0247, (5-chloro-4,6-difluoro-1H-indazol-7-yl)(1-cyclohexylcyclopropyl)methanol]	0.0001 to 10 µM	0.0001 to 10 µM			0.0001 to 10 µM	0.0001 to 10 µM
CC(C)(C1CCN(C(=O)Nc2ccccc2)CC1)[C@H](O)c1cc(Cl)cc2cn[nH]c12 [Compound P-0563, (S)-4-(1-(5-chloro-1H-indazol-7-yl)-1-hydroxy-2-methylpropan-2-yl)-N-phenylpiperidine-1-carboxamide]	0.0001 to 10 µM	0.0001 to 10 µM	0.0001 to 10 µM	0.0001 to 10 µM		
O=C(Nc1ccc(C(F)(F)F)cc1)N1CCC(C(F)(F)C(O)c2cc(Cl)cc3cn[nH]c23)CC1 (stereo not drawn) [Compound P-0153, 4-(2-(5-chloro-1H-indazol-7-yl)-1,1-difluoro-2-hydroxyethyl)-N-(4-(trifluoromethyl)phenyl)piperidine-1-carboxamide]	0.0001 to 10 µM	0.0001 to 10 µM			0.0001 to 10 µM	0.0001 to 10 µM
CC1(C(O)c2c(F)c(Cl)cc3cn[nH]c23)CCCCC1 (stereo not drawn) [Compound P-0052, (5-chloro-6-fluoro-1H-indazol-7-yl)(1-methylcyclohexyl)methanol]	0.0001 to 10 µM	0.0001 to 10 µM			0.0001 to 10 µM	0.0001 to 10 µM
CC(=O)N1C[C@H]2CC[C@@H](C1)[C@H]2C(F)(F)C(O)c1cc(Cl)cc2cn[nH]c12 (stereo partly drawn) [Compound P-0302, 1-((1R,5S,8s)-8-(2-(5-chloro-1H-indazol-7-yl)-1,1-difluoro-2-hydroxyethyl)-3-azabicyclo[3.2.1]octan-3-yl)ethan-1-one]	0.0001 to 10 µM	0.0001 to 10 µM			0.0001 to 10 µM	0.0001 to 10 µM
CC(C)(C1CCOCC1)C(O)c1c(Cl)c(Cl)cc2cn[nH]c12 (stereo not drawn) [Compound P-0220, 1-(5,6-dichloro-1H-indazol-7-yl)-2-methyl-2-(tetrahydro-2H-pyran-4-yl)propan-1-ol]	0.0001 to 10 µM	0.0001 to 10 µM			0.0001 to 10 µM	0.0001 to 10 µM
CCC(=O)N1CCC(C(F)(F)C(O)c2cc(Cl)cc3cn[nH]c23)CC1 (stereo not drawn) [Compound P-0147, 1-(4-(2-(5-chloro-1H-indazol-7-yl)-1,1-difluoro-2-hydroxyethyl)piperidin-1-yl)propan-l-one]	0.0001 to 10 µM	0.0001 to 10 µM			0.0001 to 10 µM	0.0001 to 10 µM
CC(C)(C1CCN(C(=O)NCS(C)(=O)=O)CC1)C(O)c1cc(Cl)cc2cn[nH]c12 (stereo not drawn) [Compound P-0471, 4-(1-(5-chloro-1H-indazol-7-yl)-1-hydroxy-2-methylpropan-2-yl)-N-((methylsulfonyl)methyl)piperidine-1-carboxamide]	0.0001 to 10 µM	0.0001 to 10 µM	0.0001 to 10 µM	0.0001 to 10 µM		
OC(c1cc(Cl)cc2cn[nH]c12)C1(F)CCCCC1 (stereo not drawn) [Compound P-0004, (5-chloro-1H-indazol-7-yl)(1-fluorocyclohexyl)methanol]	0.0001 to 10 µM	0.0001 to 10 µM			0.0001 to 10 µM	0.0001 to 10 µM
CC1(C(O)c2c(Cl)c(Cl)cc3cn[nH]c23)CCCCC1 (stereo not drawn) [Compound P-0287, (5,6-dichloro-1H-indazol-7-yl)(1-methylcyclohexyl)methanol]	0.0001 to 10 µM	0.0001 to 10 µM			0.0001 to 10 µM	> 10 µM
